Experiments:
[1] = target: T1, hDGKalpha(1-735)-N-His (DGKA) (Homo sapiens, UniProt P23743); assay: In vitro DGK inhibition assay (ADP-Glo, in house), DGK alpha; format: biochemical; conditions: isomer A; 4 nM DGK α, 25 μM ATP, 125 μM DLG in liposomes, 1 hour reaction; read-out: DGKalpha ADP Glo assay IC50
T1 construct: hDGKalpha(1-735)-N-His; His (N)
Experimental: (§1) DGK α and ζ kinase use ATP to phosphorylate the substrate 1,2-dilauroyl-sn-glycerol (DLG, incorporated in the liposomes). ATP is converted to ADP as a result of this enzymatic reaction.
(§2) After the kinase reaction, an ATP-depletion reagent is added to terminate the kinase reaction and deplete any remaining ATP, leaving only ADP. Second, a detection reagent is added to simultaneously convert ADP to ATP and allow the newly synthesized ATP to be converted to light using a coupled luciferase/luciferin reaction.
(§3) Full length DGKA and Z were expressed in Sf21 insect cells by infecting the cells with the baculovirus stock at MOI of 2. Purification of both enzymes was performed as previously described by Takahashi et al., PeerJ, 2018 (Takahashi, D.; Sakane, F. Expression and purification of human diacylglycerolkinase alpha from baculovirus-infected insect cells for structural studies. PeerJ2018, 6, No. e5449).
(§4) A concentrated liposome solution was prepared in assay buffer without DTT and BSA: 2 mM of DLG in 21 mM of total liposome (2 mM DLG/8 mM PS/11 mM PC). The reaction mixtures contain the assay buffer with a final DLG concentration of 125 μM ATP concentrations of 25 μM (for DGKA assay) or 50 μM (for DGKZ assay). The reactions were started by addition of DGK α and ζ kinases at 4 nM and 2 nM final concentrations, respectively. After 1 hour reaction, the amount of ADP formed was detected with the ADP-Glo kinase assay (Promega) according to the manufacturer instructions. Compounds were added in 11I-points dose response, starting at 10 mM, 1:3 dilutions, with a final DMSO concentration of […]. The multidrop combi was used as a liquid handler and luminescence was read with 0.5 s by the envision reader (PE).

[2] = target: T2, hDGKzeta(1-928)-N-His (DGKZ) (Homo sapiens, UniProt Q13574); assay: In vitro DGK inhibition assay (ADP-Glo, in house), DGK zeta; format: biochemical; conditions: isomer A; 2 nM DGK ζ, 50 μM ATP, 125 μM DLG in liposomes, 1 hour reaction; read-out: DGKzeta ADP Glo assay IC50
T2 construct: hDGKzeta(1-928)-N-His; His (N)
Experimental: as §1, §2, §3, §4

[3] = target: DGK α kinase (Homo sapiens, UniProt P23743); assay: In vitro DGK inhibition assay (ADP Glo) run by Reaction Biology Corp., DGK alpha; format: biochemical; conditions: isomer A, 2 nM kinase, 50 μM ATP, 500 uM DLG, 10-dose, 3-fold dilution starting at 1 μM, read-out: DGKalpha IC50
Experimental: (§5) DGK α and ζ kinase use ATP to phosphorylate the substrate 1,2-dilauroyl-sn-glycerol (DLG). ATP is converted to ADP as a result of this enzymatic reaction.
as §2
(§6) DGK α and ζ kinase ADP Glo assays were ran by Reaction Biology Corp., 1 Great Valley Parkway, Suite 2, Malverm, 19355, PA, USA. Information provided by the service provider are the following: DGK α and ζ kinases were used at 2 nM final concentration. Reactions were carried out at 50 μM ATP. 500 uM of the substrate DLG (Dilauroyl-sn-glycerol) was used. Compounds were received at 10 mM DMSO stock solution and were tested in 10-dose IC50 duplicate with 3-fold serial dilution starting at 1 μM. A control compound, Calphostin C, was tested in 10-dose IC50 with 3-fold serial dilution starting at 100 μM.

[4] = target: DGK ζ kinase (Homo sapiens, UniProt Q13574); assay: In vitro DGK inhibition assay (ADP Glo) run by Reaction Biology Corp., DGK zeta; format: biochemical; conditions: isomer A, 2 nM kinase, 50 μM ATP, 500 uM DLG, 10-dose, 3-fold dilution starting at 1 μM, read-out: DGKzeta IC50
Experimental: as §5, §2, §6

[5] = test system: primary human T-cells; assay: T-cell proliferation assay (CellTiter-Glo); format: cell-based; conditions: Homo sapiens, T-cell, 120 h, isomer A; for EC50: CD3 antibody-stimulated T-cells, CellTiter-Glo after 5 days, read-out: Tcell Proliferation CD3 EC50; for Emax: CD3 condition, 5 days, 20 μM reference compound A1 = 100%, DMSO neutral control, read-out: Emax proliferation (% activation)
Experimental: Expanded primary human T-cells are thawed and cultured in RPMI 1640 (Gibco, #61870-010)+5% human serum (HS, Sigma, #H3667)+1 mM Sodium Pyruvate (Gibco, #11360-039)+50 μM 2-mercaptoethanol (Gibco, #31350-010) and 1× Pen-Strep (Life Technologies, #15140122) medium at density of 2 Mio/ml for 3 hours in 5% CO2, 37° C. and 95% humidity. For coating of plates, PBS++ only or PBS++ with CD3 antibody (concentration depending on donor and determined by CD3 titrations) is added 100 μl/well to Poly-D Lysine coated 96-well plates. Plates are sealed and incubated at room temperature for 3 hours on a table-top rocking platform. After incubation, plates are washed once with PBS−− and filled with 40 μl/well culture medium only. Compounds are then added (see next section) to medium only plates. After 3 hours of culturing the T-cells, cells are filtered through a cell strainer (Miltenyi Biotech, #130-041-407), counted again and concentration is adjusted to 1.25 Mio/ml.
Cells are then seeded 80 μl/well to the 40 μl/well including dispensed compounds according to plate layout. By adding cells, compounds are further diluted 1:3, and resulting in 100k cells/120 μl/well. After 48 hours 40 μl of supernatant is collected carefully from the top while not disturbing the cells. Cells are assessed for proliferation 5 days later by measuring […] using CellTiterGlo (Promega).
Compounds were added in a 5 or 6 pt dose response with the Tecan D300e Digital Dispenser, all conditions 3 times more concentrated than the end-concentration, since cells are added afterwards (80 μl cells to 40 μl prepared medium with treatment). The DR was starting at 20 μM or 10 μM final top concentration and a dilution factor of 3.333. The positive control was the reference compound A1 that was added in a dose response as well, additionally to 3 wells of only 20 μM representing the positive stimulator control. All wells were normalized with DMSO to a final concentration of 0.6% (0.2% end-concentration).
After 5 days, for detection of ATP which is directly proportional to the number of cells present per well, the CellTiter-Glo® 2.0 Reagent is used. After visual control for toxicity or precipitations of the tested compounds, the plates are equilibrated to room temperature for 45 minutes. CellTiter-Glo® 2.0 Reagent is equilibrated to room temperature as well. After equilibration, an equal amount of CellTiter-Glo reagent is added to the cells (80 μl/well) with an electronic multichannel pipette. Plates are placed on a rocking platform for 15 minutes at room temperature. After incubation, the bottom of the plates is sealed with backing tape. Luminescence is measured with PHERAstar FSX (interval time 0.5 sec, gain 3000, focal height 15 mm) and exported as CSV file for analysis in Genedata screener.
CD3 and PBS plates were analysed separately in Genedata Screener using Roche Normalization PCT_POS_CTRL with DMSO set as Neutral Control and 20 μM of the reference compound A1 set as Stimulator Control/100%.
For CD3 conditions EC50 and Emax of the fitted sigmoidal curve were reported. If no curve could be fitted, the EC50 was reported as blank field and the Emax was based on individual data points. […] Compounds which activate unstimulated cells (see IL2 measurements) or compounds which negatively affected viability were flagged.

T2 sequence (Q13574 whole entry): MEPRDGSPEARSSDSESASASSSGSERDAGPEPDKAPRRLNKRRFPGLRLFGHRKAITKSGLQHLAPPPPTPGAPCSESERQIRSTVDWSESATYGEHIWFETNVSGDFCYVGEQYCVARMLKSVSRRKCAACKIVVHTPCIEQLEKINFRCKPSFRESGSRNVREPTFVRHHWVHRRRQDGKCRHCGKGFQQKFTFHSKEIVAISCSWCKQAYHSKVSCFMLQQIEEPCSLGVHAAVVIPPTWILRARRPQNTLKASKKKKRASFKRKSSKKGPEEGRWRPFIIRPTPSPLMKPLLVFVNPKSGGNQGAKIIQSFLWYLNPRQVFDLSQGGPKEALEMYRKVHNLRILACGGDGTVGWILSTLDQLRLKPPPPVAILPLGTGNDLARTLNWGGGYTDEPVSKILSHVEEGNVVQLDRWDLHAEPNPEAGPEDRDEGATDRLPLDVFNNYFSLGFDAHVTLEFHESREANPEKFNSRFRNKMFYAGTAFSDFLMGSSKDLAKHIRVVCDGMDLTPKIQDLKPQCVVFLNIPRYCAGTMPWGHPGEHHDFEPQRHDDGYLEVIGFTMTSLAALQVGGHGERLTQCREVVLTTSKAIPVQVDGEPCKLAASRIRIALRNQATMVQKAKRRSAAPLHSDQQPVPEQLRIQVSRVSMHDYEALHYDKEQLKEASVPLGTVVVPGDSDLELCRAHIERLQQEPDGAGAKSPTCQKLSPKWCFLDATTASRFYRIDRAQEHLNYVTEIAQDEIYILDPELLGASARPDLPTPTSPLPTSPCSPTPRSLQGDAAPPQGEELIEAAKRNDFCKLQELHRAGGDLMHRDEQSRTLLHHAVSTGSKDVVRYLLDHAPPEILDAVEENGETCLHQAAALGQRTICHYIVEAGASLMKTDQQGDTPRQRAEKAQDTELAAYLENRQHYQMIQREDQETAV
T1 sequence (P23743 whole entry): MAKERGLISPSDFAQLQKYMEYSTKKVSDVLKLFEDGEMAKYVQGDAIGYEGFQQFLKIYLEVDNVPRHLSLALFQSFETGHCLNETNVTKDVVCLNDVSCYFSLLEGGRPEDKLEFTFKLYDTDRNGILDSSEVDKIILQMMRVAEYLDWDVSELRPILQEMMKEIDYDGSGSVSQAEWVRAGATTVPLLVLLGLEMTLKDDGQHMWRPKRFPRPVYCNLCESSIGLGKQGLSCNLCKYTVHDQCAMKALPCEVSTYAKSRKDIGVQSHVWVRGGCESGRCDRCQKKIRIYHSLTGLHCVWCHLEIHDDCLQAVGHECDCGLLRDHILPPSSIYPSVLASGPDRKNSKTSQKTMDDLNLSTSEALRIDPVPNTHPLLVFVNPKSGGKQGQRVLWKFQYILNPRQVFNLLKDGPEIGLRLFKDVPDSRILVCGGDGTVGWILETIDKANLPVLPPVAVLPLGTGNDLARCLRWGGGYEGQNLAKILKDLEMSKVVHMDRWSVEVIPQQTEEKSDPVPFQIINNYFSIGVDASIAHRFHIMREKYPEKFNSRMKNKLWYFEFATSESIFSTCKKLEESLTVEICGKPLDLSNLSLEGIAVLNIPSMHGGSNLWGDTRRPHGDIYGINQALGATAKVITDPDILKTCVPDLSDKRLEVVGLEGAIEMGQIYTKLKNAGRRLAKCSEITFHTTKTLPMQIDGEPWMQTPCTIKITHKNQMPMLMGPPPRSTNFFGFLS
Sequence of DGK ζ kinase (Q13574 whole entry): as the sequence (Q13574 whole entry) above
Sequence of DGK α kinase (P23743 whole entry): as the sequence (P23743 whole entry) above

CC(C)(C#N)c1nnc(-c2cc3c(cc2F)C(F)(F)C[C@@H](N)C(=O)N3Cc2ccc(Oc3ccccc3)cc2)o1 (single isomer, unassigned) [Example 11]
IC50 [1]: 3.31 µM
IC50 [2]: 1.25 µM
IC50 [3]: 6.9 nM
IC50 [4]: 20.6 nM
EC50 [5]: 192 nM
Emax [5]: 88%

CC(C)(C)c1cncc(-c2cc3c(cc2F)C(F)(F)C[C@@H](N)C(=O)N3Cc2ccc(Cl)cc2)c1 (single isomer, unassigned) [Example 18]
IC50 [1]: > 62.5 µM
IC50 [2]: > 62.5 µM
EC50 [5]: 666 nM
Emax [5]: 52%

CC(C)(C#N)c1nnc(-c2cc3c(cc2F)C(F)(F)C[C@@H](N)C(=O)N3Cc2ccc(-n3cc(OC(F)(F)F)cn3)cc2)o1 (single isomer, unassigned) [Example 43]
EC50 [5]: 23.4 nM
Emax [5]: 105%

CC(C)(C#N)c1nnc(-c2cc3c(cc2F)C(F)(F)C[C@@H](N)C(=O)N3Cc2ccc(-n3cc(C(F)(F)F)cn3)cc2F)o1 (single isomer, unassigned) [Example 44]
EC50 [5]: 1460 nM
Emax [5]: 126%

CC(C)(C#N)c1nnc(-c2cc3c(cc2F)C(F)(F)C[C@@H](N)C(=O)N3Cc2ccc(-n3cc(C(F)(F)F)cn3)nc2F)o1 (single isomer, unassigned) [Example 45]
EC50 [5]: 2940 nM
Emax [5]: 67%

CC(C)(C#N)c1nnc(-c2cc3c(cc2F)C(F)(F)C[C@@H](N)C(=O)N3Cc2ccc(-n3cc(C(F)(F)F)cn3)nc2)o1 (single isomer, unassigned) [Example 46]
IC50 [1]: 17.8 µM
IC50 [2]: 6.75 µM
EC50 [5]: 542 nM
Emax [5]: 87%

CC(C)(C#N)c1nnc(-c2cc3c(cc2F)C(F)(F)C[C@@H](N)C(=O)N3Cc2ccc(-n3cc(C(F)(F)F)cn3)c(F)c2)o1 (single isomer, unassigned) [Example 47]
IC50 [1]: 23.7 µM
IC50 [2]: 2.99 µM
EC50 [5]: 496 nM
Emax [5]: 98%

CC(C)(C#N)c1nnc(-c2cc3c(cc2F)C(F)(F)C[C@@H](N)C(=O)N3Cc2ccc(-c3cnn(C(F)(F)F)c3)cc2)o1 (single isomer, unassigned) [Example 48]
IC50 [1]: 1.51 µM
IC50 [2]: 4.92 µM
EC50 [5]: 163 nM
Emax [5]: 171%

Source: patent US20250236614A1, “BICYCLIC TETRAHYDROAZEPINE DERIVATIVES” (Hoffmann-La Roche Inc., priority 2022, published 2025)
